# Data published in patent publication US20230027059A1, “METHODS AND COMPOSITIONS FOR GENERATING HUMAN MIDBRAIN NEURAL PROGENITOR CELLS” (Trallhead Biosystems Inc., priority 2021, published 2023).
# Experiments:
# [1] = tested on: stage 1 neural stem cells; experiment: First 12-factor HD-DoE experiment, stage 2: additional 3 days after stage 1, gene expression modeled, with dynamic profile and factor criticality analysis; format: cell-based, human; details: for FOXA2 expression level in absence of the factor / LMX1A expression level in absence of the factor: stage 2 recipe, first experiment model; for FOXA2 expression level in absence of the factor: 10,000 with all factors; for LMX1A expression level in absence of the factor: 30,000 with all factors
# Experimental: To develop the recipe for each stage, the impact of agonists and antagonists of multiple signaling pathways (referred to herein as “effectors”) on the expression of two sets of 53 pre-selected genes after a 3-day treatment was tested and modeled. These effectors are small molecules or proteins that are commonly used during stepwise differentiation of stem cells to specific fates. The choice of the effectors to test was based on current literature on neural induction in the midbrain region of the developing brain and differentiation of stem cells to neural progenitors. To test the effectors, experiments with at least 8 factors were designed that can assess the response of cells to 48 or more different combinations of effectors in a range of concentrations. To analyze the models, we focused on expression of genes expressed in the midbrain region, including OTX2, DMBX1, FOXA2, LMX1A, and on the absence of GB X2, which is a hindbrain marker. The impact of each effector on gene expression level is defined by a parameter called factor contribution that is calculated for each effector during the modeling. To further guide the differentiation of midbrain-committed neural stem cells to neural progenitor cells at stage 2, we performed an additional HD-DoE experiment. We thereby obtained additional gene regulatory models that were used for preparation of differentiation protocol. The basis of this was a 12-factor HD-DoE experiment with focus on initiation of differentiation of cells toward midbrain neural progenitor cells for an additional 3 days after termination of stage 1 treatment. Here, we focused on expression of LMX1A and FOXA2 in neural progenitor cells with low to zero expression of GBX2. LMX1A had significant high expression level in the model with value of 47888. Therefore, we used optimization setting for this gene to identify the positive factors. The factors in this experiment included SC79, MK2206, ZM336372, PD0325901, CHIR99021, A 83-01, TTNPB, AGN193109, GW3965, SR9243, Purmorphamine and GSI-XX. […] Therefore, we used dynamic profile analysis to adjust the recipe for optimized expression of both LMX1A and FOXA2 genes and minimum expression of GBX2 (FIG. 7). It was observed that even without addition of Purmorphamine, expression level of FOXA2 was at 5000, therefore inclusion of this effector is not essential, however it can improve expression of FOXA2. […] A 83-01 was another factor with opposite effect on FOXA2 and LMX1A that was included in the final recipe. […] To assess the impact of elimination of each validated factor, we used dynamic profile analysis and compared the expression level of genes of interest in absence of each finalized factor while others are present. […] In the stage 2 recipe, each of the six finalized factors were removed while the other five factors were present and the expression levels of FOXA2, LMX1A and GBX2 were assessed, compared to the levels in the presence of all factors. According to the first experiment model, the absence of TTNPB lead to a rise of GBX2 expression, while the value of FOXA2 and LMX1A reduced drastically from 10,000 to 0 and 30,000 to 15,000, respectively. The absence of A 83-01 reduced the expression of FOXA2 from 10,000 to 7000, however, as expected, the value of LMX1A increased from 30,000 to 40,000. […] According to the second experiment model, the absence of BMP7 and MK2206 both reduced the level of FOXA2 while increasing the value of LMX1A, with BMP7 as the main effector that led to 0 expression of FOXA2.
# [2] = tested on: stage 1 neural stem cells; experiment: Second 12-factor HD-DoE experiment, stage 2: hiPSCs in stage 1 media 3 days, then 96 factor combinations for 3 days, with dynamic profile and factor criticality analysis; format: cell-based, human; details: for FOXA2 expression level in absence of the factor / LMX1A expression level in absence of the factor: stage 2 recipe, second experiment model; for LMX1A expression level in absence of the factor: 4000 with all factors; for impact on expression of GBX2: stage 2, second 12-factor experiment, dynamic profile; for factor contribution: negative impact
# Experimental: To test additional factors like FGF8 that is routinely used in midbrain differentiation protocols, we ran another 12-factor experiment consisting of LDN193189, BMP7, A 83-01, Activin A, Takinib, PD0325901, MK2206, FGF8b, AZD3147, MHY1485, GSI-XX and Yhhu 3792. Similar to the previous experiment, hiPSCs were treated with stage 1 media for 3 days and then treated with 96 conditions of combinations of the factors for an additional 3 days. When this model was optimized for maximum expression of FOXA2, BMP7 with factor contribution of 13.7 and MK2206 with 14.2 had the most impact on its expression followed by AZD 3147 with factor contribution of 10.9. […] Another difference was BMP7, which has a negative impact on LMX1A. However, the factor contribution is less than 10. Therefore, to evaluate the effect of interactions between the factors and the optimal condition for the expression of both FOXA2 and LMX1A, we used dynamic profile analysis (FIG. 10). […] To assess the impact of elimination of each validated factor, we used dynamic profile analysis and compared the expression level of genes of interest in absence of each finalized factor while others are present. […] In the stage 2 recipe, each of the six finalized factors were removed while the other five factors were present and the expression levels of FOXA2, LMX1A and GBX2 were assessed, compared to the levels in the presence of all factors. According to the first experiment model, the absence of TTNPB lead to a rise of GBX2 expression, while the value of FOXA2 and LMX1A reduced drastically from 10,000 to 0 and 30,000 to 15,000, respectively. The absence of A 83-01 reduced the expression of FOXA2 from 10,000 to 7000, however, as expected, the value of LMX1A increased from 30,000 to 40,000. […] According to the second experiment model, the absence of BMP7 and MK2206 both reduced the level of FOXA2 while increasing the value of LMX1A, with BMP7 as the main effector that led to 0 expression of FOXA2.
# [3] = tested on: human pluripotent stem cells; experiment: 13-factor HD-DoE experiment, stage 1: 3-day effector treatment, gene expression modeled, with dynamic profile and factor criticality analysis; format: cell-based; details: for LMX1A expression level in absence of the factor / FOXA2 expression level in absence of the factor / DMBX1 expression level in absence of the factor / OTX2 expression level in absence of the factor: stage 1 recipe, other four factors present; for LMX1A expression level in absence of the factor: 300 with all five factors; for FOXA2 expression level in absence of the factor: 600 with all five factors; for DMBX1 expression level in absence of the factor: 3000 with all five factors; for OTX2 expression level in absence of the factor: 12000 with all five factors
# Source text: This example utilizes a method of High-Dimensional Design of Experiments (HD-DoE), as previously described in Bukys et al. (2020) Iscience 23:101346. The method employs computerized design geometries to simultaneously test multiple process inputs and offers mathematical modeling of a deep effector/response space. The method allows for finding combinatorial signaling inputs that control a complex process, such as during cell differentiation.
# It allows testing of multiple plausible critical process parameters, as such parameters impact output responses, such as gene expression. Because gene expression provides hallmark features of the phenotype of, for example, a human cell, the method can be applied to identify, and understand, which signaling pathways control cell fate. In the current example, the HD-DOE method was applied with the intent to find conditions for induction of midbrain neural progenitor-expressed genes, directly from the pluripotent stem cell state.
# To develop the recipe for each stage, the impact of agonists and antagonists of multiple signaling pathways (referred to herein as “effectors”) on the expression of two sets of 53 pre-selected genes after a 3-day treatment was tested and modeled. These effectors are small molecules or proteins that are commonly used during stepwise differentiation of stem cells to specific fates. The choice of the effectors to test was based on current literature on neural induction in the midbrain region of the developing brain and differentiation of stem cells to neural progenitors.
# To test the effectors, experiments with at least 8 factors were designed that can assess the response of cells to 48 or more different combinations of effectors in a range of concentrations. To analyze the models, we focused on expression of genes expressed in the midbrain region, including OTX2, DMBX1, FOXA2, LMX1A, and on the absence of GB X2, which is a hindbrain marker. The impact of each effector on gene expression level is defined by a parameter called factor contribution that is calculated for each effector during the modeling.
# To identify the recipe of stage 1 of differentiation, cells were treated with various effectors for 3 days and the gene expression of cells was modeled. […] This model consisted of 13 factors including LDN193189, PD173074, BLU9931, Purmorphamine, SC79, MK2206, ZM336372, PD0325901, CHIR99021, XAV939, UCLA-gp130, Tofacitinib and GO 6983.
# LDN193189 and CHIR99021 are common in both optimization settings and the rest of the factors except Purmorphamine, have a factor contribution less than 10. Therefore, we focused on impact of addition of Purmorphamine to the original 4 effectors.
# This assessment was done through dynamic profile analysis of the model with focus on expression of OTX2, DMBX1, LMX1A and FOXA2 (FIG. 3).
# To assess the impact of elimination of each validated factor, we used dynamic profile analysis and compared the expression level of genes of interest in absence of each finalized factor while others are present.
# In the stage 1 recipe, each of the five finalized factors were removed while the other four factors were present and the expression levels of OTX2, DMBX1, FOXA2 and LMX1A was assessed compared to the levels in the presence of all five factors (FIGS. 11A-B). […] Expression level of DMBX1 increased in absence of LDN193189, however values of OTX2, FOXA2 and LMX1A decreased.
# [4] = stage 2, first 12-factor experiment, dynamic profile
# [5] = dynamic profile, Purmorphamine added to the original 4 effectors
molecule,measurement,setting,value
Cc1cccc(-c2nn(C(=S)Nc3ccccc3)cc2-c2ccnc3ccccc23)n1 [A 83-01],FOXA2 expression level in absence of the factor,[1],7000
same,LMX1A expression level in absence of the factor,[1],"40,000"
C[C@H]1COCCN1c1cc(C2(S(=O)(=O)C3CC3)CC2)nc(-c2ccc(NC(=S)NCCO)cc2)n1 [AZD 3147],FOXA2 expression level in absence of the factor,[2],almost no effect
same,LMX1A expression level in absence of the factor,[2],2000
COc1cccc(Oc2cccc3nc(Nc4ccc(C(C)C)cc4)nc(N)c23)c1 [Yhhu 3792],impact on expression of GBX2,[2],positive effect
FGF8b,factor contribution,[2]; model optimized for maximum expression of FOXA2,12.8
same,factor contribution,[2]; model optimized for maximum expression of LMX1A,16.9
Cc1c[nH]c(-c2cnc(NCCNc3ccc(C#N)cn3)nc2-c2ccc(Cl)cc2Cl)n1 [CHIR99021],LMX1A expression level in absence of the factor,[3],reduced
same,FOXA2 expression level in absence of the factor,[3],reduced
same,DMBX1 expression level in absence of the factor,[3],reduced
same,OTX2 expression level in absence of the factor,[3],reduced
same,impact on expression of GBX2,[1]; [4],increases
same,impact on expression of LMX1A,[1]; [4],positive impacts
NC1(c2ccc(-c3nc4ccn5c(=O)[nH]nc5c4cc3-c3ccccc3)cc2)CCC1 [MK2206],impact on expression of GBX2,[2],desirable impact
same,FOXA2 expression level in absence of the factor,[2],reduced
same,LMX1A expression level in absence of the factor,[2],increasing
same,LMX1A expression level in absence of the factor,[3],stayed the same
same,FOXA2 expression level in absence of the factor,[3],stayed the same
same,DMBX1 expression level in absence of the factor,[3],1500
same,OTX2 expression level in absence of the factor,[3],9500
O=C(NOC[C@H](O)CO)c1ccc(F)c(F)c1Nc1ccc(I)cc1F [PD0325901],LMX1A expression level in absence of the factor,[3],500
same,FOXA2 expression level in absence of the factor,[3],700
same,DMBX1 expression level in absence of the factor,[3],900
c1ccc2c(Oc3nc(Nc4ccc(N5CCOCC5)cc4)c4ncn(C5CCCCC5)c4n3)cccc2c1 [Purmorphamine],DMBX1 expression level,[3]; [5],~3000
same,LMX1A expression level,[3]; [5],~450
same,OTX2 expression level,[3]; [5],~11000
same,LMX1A expression level in absence of the factor,[3],beneficial
same,FOXA2 expression level in absence of the factor,[3],reduction
same,DMBX1 expression level in absence of the factor,[3],beneficial
same,OTX2 expression level in absence of the factor,[3],beneficial
same,expression level of FOXA2 without addition of the effector,"[1]; dynamic profile analysis, stage 2",5000
C/C(=C\c1ccc(C(=O)O)cc1)c1ccc2c(c1)C(C)(C)CCC2(C)C [TTNPB],FOXA2 expression level in absence of the factor,[1],0
same,LMX1A expression level in absence of the factor,[1],"15,000"
c1ccc2c(-c3cnn4cc(-c5ccc(N6CCNCC6)cc5)cnc34)ccnc2c1 [LDN193189],LMX1A expression level in absence of the factor,[3],decreased
same,FOXA2 expression level in absence of the factor,[3],decreased
same,DMBX1 expression level in absence of the factor,[3],increased
same,OTX2 expression level in absence of the factor,[3],decreased
O=C(O)Cc1cccc(OCCCN(Cc2cccc(C(F)(F)F)c2Cl)CC(c2ccccc2)c2ccccc2)c1 [GW3965],FOXA2 expression level in absence of the factor,[1],"17,000"
same,LMX1A expression level in absence of the factor,[1],"10,000"
"BMP7 (protein, UniProt P18075 293-431, looked up, BMP pathway agonist) Bone morphogenetic protein 7: STGSKQRSQNRSKTPKNQEALRMANVAENSSSDQRQACKKHELYVSFRDLGWQDWIIAPEGYAAYYCEGECAFPLNSYMNATNHAIVQTLVHFINPETVPKPCCAPTQLNAISVLYFDDSSNVILKKYRNMVVRACGCH",FOXA2 expression level in absence of the factor,[2],0
same,LMX1A expression level in absence of the factor,[2],increasing
